Measurements from ChEMBL document CHEMBL5321285 (J Med Chem, 2023).
The source made the active and inactive calls. No cut-off for these calls is given here.

Target: Sigma non-opioid intracellular receptor 1 (Rattus norvegicus, UniProt Q9R0C9)
Assay: Displacement of [3H](+)-pentazocine from rat liver membranes sigma 1 receptor assessed as inhibition constant incubated for 120 mins
Format: cell membranes, Membrane
Conditions: not given

Sequence of Sigma non-opioid intracellular receptor 1 (Rattus norvegicus, UniProt Q9R0C9) (Q9R0C9 whole entry): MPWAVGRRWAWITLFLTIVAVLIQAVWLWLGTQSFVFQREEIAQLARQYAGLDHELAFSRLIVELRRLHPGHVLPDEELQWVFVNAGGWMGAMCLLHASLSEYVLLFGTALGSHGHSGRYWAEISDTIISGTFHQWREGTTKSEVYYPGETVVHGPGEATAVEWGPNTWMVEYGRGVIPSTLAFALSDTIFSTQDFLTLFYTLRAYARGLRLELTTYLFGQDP

Ki [µM]	Structure (SMILES)
0.087	CC(=O)c1ccc2c(c1)oc(=O)n2CCCCN1CCN(c2ccc(F)cc2N)CC1

System: not listed separately
Assay: Metabolic stability in rat liver microsome assessed as parent compound remaining at 1 uM measured after 1 hr in presence of NADPH regenerating system by UPLC-MS/MS analysis
Format: ADME
Conditions: liver microsomes, read-out: Stability

Structure (SMILES)	remaining at 1 h, 1 µM [%]
CCc1ncc(-c2cccc(C)n2)c(C2CCN(CC(=O)N3CCOCC3)CC2)n1	96
Cc1cc(-c2cnc(C(C)C)nc2C2CCN(CC(=O)N3CCOCC3)CC2)on1	81
CCc1ncc(-c2cc(C)no2)c(C2CCN(CCC(=O)N3CCOCC3)CC2)n1	95
Cc1cc(-c2cnc(C)nc2C2CCN(CC(=O)N3CCOCC3)CC2)on1	100
CCCc1ncc(-c2cc(C)no2)c(C2CCN(CC(=O)N3CCOCC3)CC2)n1	90
CCc1ncc(-c2cc(C)no2)c(C2CCN(CC(=O)N3CCCN(C)CC3)CC2)n1	97
CCc1ncc(-c2cc(C)no2)c(C2CCN(CCN3CCOCC3)CC2)n1	67

Results, then the molecule that gave them:

remaining at 1 h, 1 µM [%]	Structure (SMILES)
37	CC(C)(C)Oc1cc(CCC(C)(C)N2Cc3ccc(S(C)(=O)=O)cc3C2)ccc1O
92	CCc1ncc(-c2cc(C)no2)c(C2CCN(CC(=O)N3CCC4(CCOC4)CC3)CC2)n1
71	Cc1cc(-c2cnc(C(F)(F)F)nc2C2CCN(CC(=O)N3CCOCC3)CC2)on1
84	CCc1ncc(-c2cc(C)no2)c(C2CCN(CC(=O)N3CCCOCC3)CC2)n1
101	CCc1ncc(-c2cc(C)no2)c(C2CCN(CC(=O)N3CCCCC3)CC2)n1
84	Cc1cc(-c2cnc(C3CC3)nc2C2CCN(CC(=O)N3CCOCC3)CC2)on1

System: not listed separately
Assay: Metabolic stability in mouse liver microsome assessed as parent compound remaining at 1 uM measured after 1 hr in presence of NADPH regenerating system by UPLC-MS/MS analysis
Format: ADME
Conditions: liver microsomes, read-out: Stability

Structure (SMILES)	remaining at 1 h, 1 µM [%]
CCc1ncc(-c2cccc(C)n2)c(C2CCN(CC(=O)N3CCOCC3)CC2)n1	76
Cc1cc(-c2cnc(C(C)C)nc2C2CCN(CC(=O)N3CCOCC3)CC2)on1	65
CCc1ncc(-c2cc(C)no2)c(C2CCN(CCC(=O)N3CCOCC3)CC2)n1	94
Cc1cc(-c2cnc(C)nc2C2CCN(CC(=O)N3CCOCC3)CC2)on1	87
CCCc1ncc(-c2cc(C)no2)c(C2CCN(CC(=O)N3CCOCC3)CC2)n1	89
CCc1ncc(-c2cc(C)no2)c(C2CCN(CC(=O)N3CCCN(C)CC3)CC2)n1	83
CCc1ncc(-c2cc(C)no2)c(C2CCN(CCN3CCOCC3)CC2)n1	56

Next, values leading:

remaining at 1 h, 1 µM [%]	Structure (SMILES)
62	CC(C)(C)Oc1cc(CCC(C)(C)N2Cc3ccc(S(C)(=O)=O)cc3C2)ccc1O
88	CCc1ncc(-c2cc(C)no2)c(C2CCN(CC(=O)N3CCC4(CCOC4)CC3)CC2)n1
77	Cc1cc(-c2cnc(C(F)(F)F)nc2C2CCN(CC(=O)N3CCOCC3)CC2)on1
69	CCc1ncc(-c2cc(C)no2)c(C2CCN(CC(=O)N3CCCOCC3)CC2)n1
59	CCc1ncc(-c2cc(C)no2)c(C2CCN(CC(=O)N3CCCCC3)CC2)n1
97	Cc1cc(-c2cnc(C3CC3)nc2C2CCN(CC(=O)N3CCOCC3)CC2)on1

Target: not listed separately
Assay: Binding affinity to sigma1 receptor (unknown origin) assessed as inhibition constant
Conditions: not given

Ki [µM]	Structure (SMILES)
0.063	CC(C)(C)Oc1cc(CCC(C)(C)N2Cc3ccc(S(C)(=O)=O)cc3C2)ccc1O

Species on record: Homo sapiens
Assay: Selectivity ratio of Ki for displacement of [3H]-(+)-pentazocine from human sigma1 receptor transfected in HEK293 cell membranes assessed as inhibition constant to Ki for displacement of [3H]-1,3-di-O-tolylguanidine from human sigma 2 receptor/TMEM97 transfected in sigma 1 receptor knockout HEK293 cell membranes assessed as inhibition constant
Conditions: not given

Structure (SMILES)	Ratio Ki
CC(C)(C)Oc1cc(CCC(C)(C)N2Cc3ccc(S(C)(=O)=O)cc3C2)ccc1O	4.6
CCc1ncc(-c2cc(C)no2)c(C2CCN(CC(=O)N3CCC4(CCOC4)CC3)CC2)n1	2150
CCc1ncc(-c2cccc(C)n2)c(C2CCN(CC(=O)N3CCOCC3)CC2)n1	> 8.6
Cc1cc(-c2cnc(C(C)C)nc2C2CCN(CC(=O)N3CCOCC3)CC2)on1	> 21
Cc1cc(-c2cnc(C(F)(F)F)nc2C2CCN(CC(=O)N3CCOCC3)CC2)on1	> 166
CCc1ncc(-c2cc(C)no2)c(C2CCN(CC(=O)N3CCCOCC3)CC2)n1	> 200
Cc1cc(-c2cnc(C)nc2C2CCN(CC(=O)N3CCOCC3)CC2)on1	140
CCCc1ncc(-c2cc(C)no2)c(C2CCN(CC(=O)N3CCOCC3)CC2)n1	> 16
CCc1ncc(-c2cc(C)no2)c(C2CCN(CC(=O)N3CCCCC3)CC2)n1	220
CCc1ncc(-c2cc(C)no2)c(C2CCN(CC(=O)N3CCCN(C)CC3)CC2)n1	> 10
Cc1cc(-c2cnc(C3CC3)nc2C2CCN(CC(=O)N3CCOCC3)CC2)on1	789

System: Neuron
Assay: Neuroprotective activity against MPP+ induced rat neurons at 10 uM pretreated with compond for 1 hr followed by MPP+ addition and measured after 48 hrs
Format: functional, cell-based
Conditions: time 49.0 hrs

Structure (SMILES)	Activity
CC(C)(C)Oc1cc(CCC(C)(C)N2Cc3ccc(S(C)(=O)=O)cc3C2)ccc1O	Active

System: not listed separately
Assay: Metabolic stability in human liver microsome assessed as parent compound remaining at 1 uM measured after 1 hr in presence of NADPH regenerating system by UPLC-MS/MS analysis
Format: ADME
Conditions: liver microsomes, read-out: Stability

Structure (SMILES)	remaining at 1 h, 1 µM [%]
CCc1ncc(-c2cccc(C)n2)c(C2CCN(CC(=O)N3CCOCC3)CC2)n1	83
Cc1cc(-c2cnc(C(C)C)nc2C2CCN(CC(=O)N3CCOCC3)CC2)on1	80
CCc1ncc(-c2cc(C)no2)c(C2CCN(CCC(=O)N3CCOCC3)CC2)n1	86
Cc1cc(-c2cnc(C)nc2C2CCN(CC(=O)N3CCOCC3)CC2)on1	104
CCCc1ncc(-c2cc(C)no2)c(C2CCN(CC(=O)N3CCOCC3)CC2)n1	89
CCc1ncc(-c2cc(C)no2)c(C2CCN(CC(=O)N3CCCN(C)CC3)CC2)n1	85
CCc1ncc(-c2cc(C)no2)c(C2CCN(CCN3CCOCC3)CC2)n1	75

More lines, now with the values ahead:

remaining at 1 h, 1 µM [%]	Structure (SMILES)
60	CC(C)(C)Oc1cc(CCC(C)(C)N2Cc3ccc(S(C)(=O)=O)cc3C2)ccc1O
82	CCc1ncc(-c2cc(C)no2)c(C2CCN(CC(=O)N3CCC4(CCOC4)CC3)CC2)n1
78	Cc1cc(-c2cnc(C(F)(F)F)nc2C2CCN(CC(=O)N3CCOCC3)CC2)on1
77	CCc1ncc(-c2cc(C)no2)c(C2CCN(CC(=O)N3CCCOCC3)CC2)n1
58	CCc1ncc(-c2cc(C)no2)c(C2CCN(CC(=O)N3CCCCC3)CC2)n1
86	Cc1cc(-c2cnc(C3CC3)nc2C2CCN(CC(=O)N3CCOCC3)CC2)on1

Target: T1, Sigma intracellular receptor 2 (Homo sapiens, UniProt Q5BJF2)
Assay: Binding affinity to sigma2 receptor (unknown origin) assessed as inhibition constant
Conditions: not given

T1 sequence (Q5BJF2 whole entry): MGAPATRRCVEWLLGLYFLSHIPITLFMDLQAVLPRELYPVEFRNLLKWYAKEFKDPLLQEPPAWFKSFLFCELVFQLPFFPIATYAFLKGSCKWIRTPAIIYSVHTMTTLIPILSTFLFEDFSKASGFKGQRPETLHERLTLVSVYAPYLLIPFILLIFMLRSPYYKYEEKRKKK

Ki [µM]	Structure (SMILES)
0.008	CC(C)(C)Oc1cc(CCC(C)(C)N2Cc3ccc(S(C)(=O)=O)cc3C2)ccc1O

Target: Voltage-gated inwardly rectifying potassium channel KCNH2 (Homo sapiens, UniProt Q12809)
Assay: Inhibition of hERG expressed in CHO cells at holding potential of -80 mV measured for 15 seconds by whole cell patch clamp assay
Format: toxicity, cell-based
Conditions: not given

Sequence of Voltage-gated inwardly rectifying potassium channel KCNH2 (Q12809 whole entry): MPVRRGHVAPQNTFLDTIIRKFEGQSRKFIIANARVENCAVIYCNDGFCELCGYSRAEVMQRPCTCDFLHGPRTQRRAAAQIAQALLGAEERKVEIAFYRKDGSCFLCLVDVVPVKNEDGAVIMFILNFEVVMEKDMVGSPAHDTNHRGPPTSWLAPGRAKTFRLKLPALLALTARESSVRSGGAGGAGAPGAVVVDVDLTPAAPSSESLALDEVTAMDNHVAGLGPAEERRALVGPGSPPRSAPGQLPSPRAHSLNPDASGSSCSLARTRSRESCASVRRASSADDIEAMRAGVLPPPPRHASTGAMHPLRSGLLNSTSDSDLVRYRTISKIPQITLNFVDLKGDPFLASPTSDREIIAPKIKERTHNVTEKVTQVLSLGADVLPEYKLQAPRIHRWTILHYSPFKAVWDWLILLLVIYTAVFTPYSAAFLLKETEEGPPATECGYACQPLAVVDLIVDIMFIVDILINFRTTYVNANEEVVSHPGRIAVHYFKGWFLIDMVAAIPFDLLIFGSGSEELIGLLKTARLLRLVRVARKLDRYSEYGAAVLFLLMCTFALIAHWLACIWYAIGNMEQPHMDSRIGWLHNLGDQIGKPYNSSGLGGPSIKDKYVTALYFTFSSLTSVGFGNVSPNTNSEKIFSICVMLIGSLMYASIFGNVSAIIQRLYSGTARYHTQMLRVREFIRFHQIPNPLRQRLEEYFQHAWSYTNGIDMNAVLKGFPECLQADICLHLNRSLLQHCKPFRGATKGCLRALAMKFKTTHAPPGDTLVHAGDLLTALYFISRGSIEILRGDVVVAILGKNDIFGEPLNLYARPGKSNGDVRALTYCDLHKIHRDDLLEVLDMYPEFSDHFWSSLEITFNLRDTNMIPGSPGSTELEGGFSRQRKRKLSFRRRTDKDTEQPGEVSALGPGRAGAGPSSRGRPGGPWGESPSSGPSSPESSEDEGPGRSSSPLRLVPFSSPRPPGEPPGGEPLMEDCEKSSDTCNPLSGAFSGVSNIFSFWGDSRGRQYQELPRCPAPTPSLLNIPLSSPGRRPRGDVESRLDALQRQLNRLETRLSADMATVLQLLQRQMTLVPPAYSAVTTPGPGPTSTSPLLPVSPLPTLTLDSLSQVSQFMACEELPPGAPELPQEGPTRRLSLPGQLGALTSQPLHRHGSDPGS

Structure (SMILES)	IC50 [µM]
CCc1ncc(-c2cc(C)no2)c(C2CCN(CC(=O)N3CCC4(CCOC4)CC3)CC2)n1	> 10
Cc1cc(-c2cnc(C(C)C)nc2C2CCN(CC(=O)N3CCOCC3)CC2)on1	3.6
Cc1cc(-c2cnc(C(F)(F)F)nc2C2CCN(CC(=O)N3CCOCC3)CC2)on1	> 10
CCc1ncc(-c2cc(C)no2)c(C2CCN(CC(=O)N3CCCOCC3)CC2)n1	> 10
CCc1ncc(-c2cc(C)no2)c(C2CCN(CCC(=O)N3CCOCC3)CC2)n1	4.5
Cc1cc(-c2cnc(C)nc2C2CCN(CC(=O)N3CCOCC3)CC2)on1	> 10
CCCc1ncc(-c2cc(C)no2)c(C2CCN(CC(=O)N3CCOCC3)CC2)n1	5.4
CCc1ncc(-c2cc(C)no2)c(C2CCN(CC(=O)N3CCCCC3)CC2)n1	8.7
CCc1ncc(-c2cc(C)no2)c(C2CCN(CC(=O)N3CCCN(C)CC3)CC2)n1	> 10
CCc1ncc(-c2cc(C)no2)c(C2CCN(CCN3CCOCC3)CC2)n1	> 10
Cc1cc(-c2cnc(C3CC3)nc2C2CCN(CC(=O)N3CCOCC3)CC2)on1	4.2

Target: T1, Sigma intracellular receptor 2
Assay: Displacement of [3H]-1,3-di-O-tolylguanidine from human sigma 2 receptor/TMEM97 transfected in sigma 1 receptor knockout HEK293 cell membranes assessed as inhibition constant measured after 120 mins by microbeta scintillation counting analysis
Set-up: species or system Cell membrane
Conditions: not given

Structure (SMILES)	Ki [µM]
CCc1ncc(-c2cccc(C)n2)c(C2CCN(CC(=O)N3CCOCC3)CC2)n1	0.116
Cc1cc(-c2cnc(C(C)C)nc2C2CCN(CC(=O)N3CCOCC3)CC2)on1	0.047
CCc1ncc(-c2cc(C)no2)c(C2CCN(CCC(=O)N3CCOCC3)CC2)n1	0.062
Cc1cc(-c2cnc(C)nc2C2CCN(CC(=O)N3CCOCC3)CC2)on1	0.059
CCCc1ncc(-c2cc(C)no2)c(C2CCN(CC(=O)N3CCOCC3)CC2)n1	0.061
CCc1ncc(-c2cc(C)no2)c(C2CCN(CC(=O)N3CCCN(C)CC3)CC2)n1	0.098
CCc1ncc(-c2cc(C)no2)c(C2CCN(CCN3CCOCC3)CC2)n1	0.038

Next, values leading:

Ki [µM]	Structure (SMILES)
0.005	CC(C)(C)Oc1cc(CCC(C)(C)N2Cc3ccc(S(C)(=O)=O)cc3C2)ccc1O
0.001	CCc1ncc(-c2cc(C)no2)c(C2CCN(CC(=O)N3CCC4(CCOC4)CC3)CC2)n1
0.006	Cc1cc(-c2cnc(C(F)(F)F)nc2C2CCN(CC(=O)N3CCOCC3)CC2)on1
0.005	CCc1ncc(-c2cc(C)no2)c(C2CCN(CC(=O)N3CCCOCC3)CC2)n1
0.004	CCc1ncc(-c2cc(C)no2)c(C2CCN(CC(=O)N3CCCCC3)CC2)n1
0.001	Cc1cc(-c2cnc(C3CC3)nc2C2CCN(CC(=O)N3CCOCC3)CC2)on1

Target: Sigma non-opioid intracellular receptor 1 (Homo sapiens, UniProt Q99720)
Assay: Displacement of [3H]-(+)-pentazocine from human sigma1 receptor transfected in HEK293 cell membranes assessed as inhibition constant incubated for 120 mins in presence of haloperidol by microbeta scintillation counter analysis
Set-up: species or system Cell membrane
Conditions: not given

Sequence of Sigma non-opioid intracellular receptor 1 (Homo sapiens, UniProt Q99720) (Q99720 whole entry): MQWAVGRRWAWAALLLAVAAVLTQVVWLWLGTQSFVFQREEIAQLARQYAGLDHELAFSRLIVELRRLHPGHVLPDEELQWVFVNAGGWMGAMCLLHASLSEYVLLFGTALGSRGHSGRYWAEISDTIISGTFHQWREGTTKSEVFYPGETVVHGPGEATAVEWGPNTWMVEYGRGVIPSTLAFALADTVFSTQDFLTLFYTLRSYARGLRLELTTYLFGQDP

Structure (SMILES)	Ki [µM]
CCc1ncc(-c2cccc(C)n2)c(C2CCN(CC(=O)N3CCOCC3)CC2)n1	> 1
Cc1cc(-c2cnc(C(C)C)nc2C2CCN(CC(=O)N3CCOCC3)CC2)on1	> 1
CCc1ncc(-c2cc(C)no2)c(C2CCN(CCC(=O)N3CCOCC3)CC2)n1	> 1
Cc1cc(-c2cnc(C)nc2C2CCN(CC(=O)N3CCOCC3)CC2)on1	8.27
CCCc1ncc(-c2cc(C)no2)c(C2CCN(CC(=O)N3CCOCC3)CC2)n1	> 1
CCc1ncc(-c2cc(C)no2)c(C2CCN(CC(=O)N3CCCN(C)CC3)CC2)n1	> 1
CCc1ncc(-c2cc(C)no2)c(C2CCN(CCN3CCOCC3)CC2)n1	0.15

Other lines, results leading:

Ki [µM]	Structure (SMILES)
0.023	CC(C)(C)Oc1cc(CCC(C)(C)N2Cc3ccc(S(C)(=O)=O)cc3C2)ccc1O
2.15	CCc1ncc(-c2cc(C)no2)c(C2CCN(CC(=O)N3CCC4(CCOC4)CC3)CC2)n1
> 1	Cc1cc(-c2cnc(C(F)(F)F)nc2C2CCN(CC(=O)N3CCOCC3)CC2)on1
> 1	CCc1ncc(-c2cc(C)no2)c(C2CCN(CC(=O)N3CCCOCC3)CC2)n1
0.882	CCc1ncc(-c2cc(C)no2)c(C2CCN(CC(=O)N3CCCCC3)CC2)n1
0.789	Cc1cc(-c2cnc(C3CC3)nc2C2CCN(CC(=O)N3CCOCC3)CC2)on1

Target: T2, Sigma intracellular receptor 2 (Rattus norvegicus, UniProt Q5U3Y7)
T2 sequence (Q5U3Y7 whole entry): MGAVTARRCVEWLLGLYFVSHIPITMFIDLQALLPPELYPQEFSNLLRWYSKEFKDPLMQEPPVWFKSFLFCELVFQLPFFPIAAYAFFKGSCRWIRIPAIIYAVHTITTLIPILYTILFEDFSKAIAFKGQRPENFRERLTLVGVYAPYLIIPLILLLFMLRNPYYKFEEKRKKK
Assay: Displacement of [3H]di-o-tolylguanidine from rat liver membrane sigma 2 assessed as inhibition constant incubated for 120 mins
Format: cell membranes
Conditions: not given

Ki [µM]	Structure (SMILES)
0.0035	CC(=O)c1ccc2c(c1)oc(=O)n2CCCCN1CCN(c2ccc(F)cc2N)CC1
